Measurements: publication PMC3335202 (Journal of Medicinal Chemistry, 2012)

How the values were obtained:
[1] = test system: Human embryonic stem cell H9 lines carrying MYH6-mCherry reporters; assay: hESC cardiogenesis assay; format: cell-based; conditions: for induction of cardiogenesis (class in words): dose-response behaviour
[2] = test system: β-catenin-dependent canonical Wnt pathway; assay: Wnt inhibition assay; format: cell-based, human

| SMILES | induction of cardiogenesis (class in words) ([1]; hESCs) | further results |
| --- | --- | --- |
| O=C(Nc1cccc2cccnc12)c1ccc(N2C(=O)[C@@H]3[C@@H]4CC[C@@H](C4)[C@@H]3C2=O)cc1 [Compound 9, 4-(cis-endo-1,3-Dioxooctahydro-2H-4,7-methanoisoindol-2-yl)-N-(quinolin-8-yl)benzamide] | dose-dependent induction of cardiogenesis functional activity |  |
| O=C1[C@@H]2[C@@H]3CC[C@@H](C3)[C@@H]2C(=O)N1[C@H]1CC[C@H](C(=O)Nc2cccc3cccnc23)CC1 [Compound 10, 4-(cis-endo-1,3-Dioxooctahydro-2H-4,7-methanoisoindol-2-yl)-N-(quinolin-8-yl)-trans-cyclohexyl carboxamide] | potent stimulators of cardiogenesis | Emax ([1]; Homo sapiens, Embryonic stem cell, read-out: % cardiogenesis): 145% |
| O=C1[C@@H]2[C@@H]3CC[C@@H](C3)[C@@H]2C(=O)N1[C@H]1CC[C@@H](C(=O)Nc2cccc3cccnc23)CC1 [Compound 11, 4-(cis-endo-1,3-Dioxooctahydro-2H-4,7-methanoisoindol-2-yl)-N-(quinolin-8-yl)-cis-cyclohexyl carboxamide] | dose-dependent induction of cardiogenesis functional activity |  |
| O=C(Nc1cccc2ccccc12)c1ccc(N2C(=O)[C@@H]3[C@@H]4CC[C@@H](C4)[C@@H]3C2=O)cc1 [Compound 12, 4-(cis-endo-1,3-Dioxooctahydro-2H-4,7-methanoisoindol-2-yl)-N-(naphtalen-1-yl) benzamide] | functionally inactive as inducers of cardiogenesis |  |
| O=C1[C@@H]2[C@@H]3CC[C@@H](C3)[C@@H]2C(=O)N1[C@H]1CC[C@H](C(=O)Nc2nccc3ccccc23)CC1 [Compound 13, 4-(cis-endo-1,3-Dioxooctahydro-2H-4,7-methanoisoindol-2-yl)-N-(isoquinolin-1-yl)-trans-cyclohexylcarboxamide] | dose-dependent induction of cardiogenesis functional activity |  |
| O=C1[C@@H]2[C@@H]3CC[C@@H](C3)[C@@H]2C(=O)N1[C@H]1CC[C@H](C(=O)Nc2cncc3ccccc23)CC1 [Compound 14, 4-(cis-endo-1,3-Dioxooctahydro-2H-4,7-methanoisoindol-2-yl)-N-(isoquinolin-4-yl)-trans-cyclohexylcarboxamide] | dose-dependent induction of cardiogenesis functional activity |  |
| O=C1[C@@H]2[C@@H]3CC[C@@H](C3)[C@@H]2C(=O)N1[C@H]1CC[C@H](C(=O)Nc2cccc3ccncc23)CC1 [Compound 18, 4-(cis-endo-1,3-Dioxooctahydro-2H-4,7-methanoisoindol-2-yl)-N-(isoquinolin-8-yl)-trans-cyclohexylcarboxamide] | dose-dependent induction of cardiogenesis functional activity | Z score at 625 nM ([1]; cardiogenesis, relative to DMSO control, 625 nM): negative |
| COC(=O)c1ccccc1NC(=O)[C@H]1CC[C@H](N2C(=O)[C@@H]3[C@@H]4CC[C@@H](C4)[C@@H]3C2=O)CC1 [Compound 27] | dose-dependent induction of cardiogenesis functional activity |  |
| O=C1CCCc2cccc(NC(=O)[C@H]3CC[C@H](N4C(=O)[C@@H]5[C@@H]6CC[C@@H](C6)[C@@H]5C4=O)CC3)c21 [Compound 29, 4-(cis-endo-(1,3-Dioxooctahydro-2H-4,7-methanoisoindol-2-yl))-N-(8-oxo-5,6,7,8-tetrahydronaphthalen-1-yl)-trans-cyclohexylcarboxamide] | potent stimulators of cardiogenesis | concentration giving maximum percent cardiogenesis ([1]; hESCs): 150 nM; fold greater cardiogenic potency (lower concentration) compared to 1 ([1]; ratio of concentrations for maximum cardiogenesis): 30 fold |
| O=C1c2ccccc2-c2cccc(NC(=O)[C@H]3CC[C@H](N4C(=O)[C@@H]5[C@@H]6CC[C@@H](C6)[C@@H]5C4=O)CC3)c21 [Compound 30, 4-(cis-endo-(1,3-Dioxooctahydro-2H-4,7-methanoisoindol-2-yl))-N-(9H-fluoren-9-on-1-yl)-trans-cyclohexylcarboxamide] | dose-dependent induction of cardiogenesis functional activity |  |
| O=C1[C@@H]2[C@@H]3CC[C@@H](C3)[C@@H]2C(=O)N1[C@H]1CC[C@H](C(=O)Nc2ccccn2)CC1 [Compound 31, 4-(cis-endo-(1,3-Dioxooctahydro-2H-4,7-methanoisoindol-2-yl))-N-(pyridin-2-yl)-trans-cyclohexyl carboxamide] | functionally inactive as inducers of cardiogenesis | IC50 ([2]; Homo sapiens, HEK-293T, Wnt inhibition, HEK293T cells): ~100 nM |
| CC(=O)c1ncccc1NC(=O)[C@H]1CC[C@H](N2C(=O)[C@@H]3[C@@H]4CC[C@@H](C4)[C@@H]3C2=O)CC1 [Compound 34, 4-(cis-endo-(1,3-Dioxooctahydro-2H-4,7-methanoisoindol-2-yl))-N-(2-acetyl-pyridin-3-yl)-trans-cyclohexylcarboxamide] | potent stimulators of cardiogenesis |  |
| CC(=O)c1ccc(NC(=O)[C@H]2CC[C@H](N3C(=O)[C@@H]4[C@@H]5CC[C@@H](C5)[C@@H]4C3=O)CC2)cn1 [Compound 35, 4-(cis-endo-(1,3-Dioxooctahydro-2H-4,7-methanoisoindol-2-yl))-N-(6-acetyl-pyridin-3-yl)-trans-cyclohexylcarboxamide] | functionally inactive as inducers of cardiogenesis |  |
| O=C(Nc1cccc2cccnc12)c1ccc(N2C(=O)[C@@H]3[C@H](C2=O)[C@@H]2C=C[C@H]3CC2)cc1 [Compound 36, 4-cis-endo-(3a,4,7,7a-Tetrahydro-1H-4,7-ethanoisoindole-1,3(2H)-dion-2-yl)-N-(quinolin-8-yl) benzamide] |  | fold less potent in Wnt inhibition ([2]; compared with the well-tolerated parent (9/1)): > 10 fold |
| COc1cc(Br)ccc1NC(=O)[C@H]1CC[C@H](N2C(=O)[C@@H]3[C@@H]4CC[C@@H](C4)[C@@H]3C2=O)CC1 [Compound 53, 4-(cis-endo-1,3-Dioxooctahydro-2H-4,7-methanoisoindol-2-yl)-N-(4-bromo-2-methoxyphenyl)-trans-cyclohexylcarboxamide] | dose-dependent induction of cardiogenesis functional activity |  |
| O=C1[C@@H]2[C@@H]3CC[C@@H](C3)[C@@H]2C(=O)N1[C@H]1CC[C@H](C(=O)Nc2cncc(O)c2)CC1 [Compound 54, 4-(cis-endo-1,3-Dioxooctahydro-2H-4,7-methanoisoindol-2-yl)-N-(5-hydroxyl-pyridin-3-yl)-trans-cyclohexylcarboxamide] | dose-dependent induction of cardiogenesis functional activity |  |
| O=C1[C@@H]2[C@@H]3CC[C@@H](C3)[C@@H]2C(=O)N1[C@H]1CC[C@H](C(=O)Nc2cccnc2Cl)CC1 [Compound 55, 4-(cis-endo-1,3-Dioxooctahydro-2H-4,7-methanoisoindol-2-yl)-N-(2-chloropyridin-3-yl)-trans-cyclohexylcarboxamide] | dose-dependent induction of cardiogenesis functional activity |  |
| CC(=O)c1ccccc1NC(=O)[C@H]1CC[C@@H](N2C(=O)[C@@H]3[C@@H]4CC[C@@H](C4)[C@@H]3C2=O)CC1 [Compound 56, 4-(cis-endo-1,3-Dioxooctahydro-2H-4,7-methanoisoindol-2-yl)-N-(2-acetylphenyl)-cis-cyclohexyl carboxamide] | dose-dependent induction of cardiogenesis functional activity |  |
